One may read the pIC50 as the negative decadic logarithm of the IC50, by convention in mol/L. Lower therefore signals a high IC50.

Data on 34 compounds can be found in patent publication US20090105283A1, “3-HYDROQUINAZOLIN-4-ONE DERIVATIVES FOR USE AS STEAROYL CoA DESATURASE INHIBITORS” (priority 2007, published 2009).

pIC50: −log10 of the molar value.

This assay concerns the target T1, stearoyl-CoA desaturase (SCD) (Rattus norvegicus, UniProt P07308).
T1 construct: The microsomes were quickly thawed and added to assay buffer so that a concentration of 0.4 mg/ml was achieved; from tissue
T1 sequence (P07308 1-358): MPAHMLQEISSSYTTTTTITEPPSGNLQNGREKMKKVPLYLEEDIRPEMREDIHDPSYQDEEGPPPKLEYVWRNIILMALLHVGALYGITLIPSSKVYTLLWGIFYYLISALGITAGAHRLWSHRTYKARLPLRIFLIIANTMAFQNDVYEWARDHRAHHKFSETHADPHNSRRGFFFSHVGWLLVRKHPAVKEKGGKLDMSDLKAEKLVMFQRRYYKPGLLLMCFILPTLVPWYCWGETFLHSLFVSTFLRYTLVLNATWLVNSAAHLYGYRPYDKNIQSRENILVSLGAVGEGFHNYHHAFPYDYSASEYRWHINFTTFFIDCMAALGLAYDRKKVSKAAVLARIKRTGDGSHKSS
As to the kind of experiment: SCD assay with rat liver microsomes ([3H]stearoyl CoA, adapted from Talamo and Bloch). It counts as biochemical. Conditions: [3H]stearoyl CoA substrate. The gist of the method:
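Liver microsomes came from diet-induced male Sprague Dawley rats and were used at 0.2 mg/ml final. Assay buffer was Tris pH 7.2 with NADH, ATP, CoA, MgCl2 and 0.1% BSA. Compounds were preincubated 30 min, then reacted 45 min at room temperature with [3H]stearoyl-CoA; after TCA stop and Bio-Bead cleanup, supernatant radioactivity was counted by scintillation.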
Background: Microsomes from liver hold many membrane-bound enzymes, among them those of drug oxidation.

Where [1] appears, read: Table 1, rat liver microsomes 0.2 mg/ml assay final, 30 min preincubation, 45 min reaction, room temperature.
The mark [2] stands for this setting: Table 2 (Example 21, procedures of Example 20), rat liver microsomes.

On to `Cc1ccc(OCC(=O)Nc2ccc3ncn(Cc4ccc(Cl)c(Cl)c4)c(=O)c3c2)cc1` [XXII, N-{3-[(3,4-dichlorophenyl)methyl]-4-oxo(3-hydroquinazolin-6-yl)}-2-(4-methylphenoxy)acetamide], for which the pIC50 under setting [1] was 5.24. As for `O=C(Nc1ccc2ncn(Cc3ccc(Cl)c(Cl)c3)c(=O)c2c1)OCc1cccnc1` [XXIII, N-{3-[(3,4-dichlorophenyl)methyl]-4-oxo(3-hydroquinazolin-6-yl)}(3-pyridylmethoxy)carboxamide], under setting [1], the pIC50 is 6.77. Under setting [1], `O=C(Nc1ccc2ncn(Cc3ccc(F)cc3)c(=O)c2c1)OCc1ccccc1` [XXIV, N-{3-[(4-fluorophenyl)methyl]-4-oxo(3-hydroquinazolin-6-yl)}(phenylmethoxy)carboxamide] had a pIC50 of 6.52. Under setting [1], `O=C(COc1ccccc1Cl)Nc1ccc2ncn(Cc3ccc(Cl)c(Cl)c3)c(=O)c2c1` [XXIX, N-{3-[(3,4-dichlorophenyl)methyl]-4-oxo(3-hydroquinazolin-6-yl)}-2-(2-chlorophenoxy)acetamide] had a negative logarithm of the IC50 (pIC50) of 5.70.

Consider `COc1ccccc1OCC(=O)Nc1ccc2ncn(Cc3ccc(Cl)c(Cl)c3)c(=O)c2c1` [XXV, N-{3-[(3,4-dichlorophenyl)methyl]-4-oxo(3-hydroquinazolin-6-yl)}-2-(2-methoxyphenoxy)acetamide], for which the pIC50 under setting [1] was 6.11. In turn, `O=C(COc1ccccc1F)Nc1ccc2ncn(Cc3ccc(Cl)c(Cl)c3)c(=O)c2c1` [XXVI, N-{3-[(3,4-dichlorophenyl)methyl]-4-oxo(3-hydroquinazolin-6-yl)}-2-(2-fluorophenoxy)acetamide] showed a pIC50 under setting [1] of 5.43.

Regarding `O=C(COc1cccc(F)c1)Nc1ccc2ncn(Cc3ccc(Cl)c(Cl)c3)c(=O)c2c1` [XXVII, N-{3-[(3,4-dichlorophenyl)methyl]-4-oxo(3-hydroquinazolin-6-yl)}-2-(3-fluorophenoxy)acetamide], the pIC50 under setting [1] is 5.70. On the same count and under the same terms, the figure for `O=C(COc1ccc(F)cc1F)Nc1ccc2ncn(Cc3ccc(Cl)c(Cl)c3)c(=O)c2c1` [XXVIII, N-{3-[(3,4-dichlorophenyl)methyl]-4-oxo(3-hydroquinazolin-6-yl)}-2-(2,4-difluorophenoxy)acetamide] is 5.46; for `O=C(COc1cccc(Cl)c1Cl)Nc1ccc2ncn(Cc3ccc(Cl)c(Cl)c3)c(=O)c2c1` [XXX, N-{3-[(3,4-dichlorophenyl)methyl]-4-oxo(3-hydroquinazolin-6-yl)}-2-(2,3-dichlorophenoxy)acetamide] it is 5.42. Same read-out and setting: the same measure for `O=C(COc1ccccc1[N+](=O)[O-])Nc1ccc2ncn(Cc3ccc(Cl)c(Cl)c3)c(=O)c2c1` [XXXI, N-{3-[(3,4-dichlorophenyl)methyl]-4-oxo(3-hydroquinazolin-6-yl)}-2-(2-nitrophenoxy)acetamide]: 4.82; for `O=C(COc1ccc2ccccc2c1)Nc1ccc2ncn(Cc3ccc(Cl)c(Cl)c3)c(=O)c2c1` [XXXII, N-{3-[(3,4-dichlorophenyl)methyl]-4-oxo(3-hydroquinazolin-6-yl)}-2-(2-naphthyloxy)acetamide]: 5.55.

Turning to `O=C(CCOc1ccccc1)Nc1ccc2ncn(Cc3ccc(Cl)c(Cl)c3)c(=O)c2c1` [XXXIII, N-{3-[(3,4-dichlorophenyl)methyl]-4-oxo(3-hydroquinazolin-6-yl)}-3-phenoxypropanamide], under setting [1], the pIC50 is 5.16. Still for that read-out and setting: the figure for `CC(Oc1ccccc1Cl)C(=O)Nc1ccc2ncn(Cc3ccc(Cl)c(Cl)c3)c(=O)c2c1` (stereo not shown) [XXXIV, N-{3-[(3,4-dichlorophenyl)methyl]-4-oxo(3-hydroquinazolin-6-yl)}-2-(2-chlorophenoxy)propanamide] is 5.68; for `O=C(COc1ccccc1)Nc1ccc2ncn(Cc3ccc(Cl)c(F)c3)c(=O)c2c1` [XXXIX, N-{3-[(4-chloro-3-fluorophenyl)methyl]-4-oxo(3-hydroquinazolin-6-yl)}-2-phenoxyacetamide] it is 5.21. Compound `O=C(COc1cccc2nsnc12)Nc1ccc2ncn(Cc3ccc(Cl)c(Cl)c3)c(=O)c2c1` [XXXV, 2-benzo[c]1,2,5-thiadiazol-4-yloxy-N-{3-[(3,4-dichlorophenyl)methyl]-4-oxo(3-hydroquinazolin-6-yl)}acetamide] showed a pIC50 under setting [1] of 4.68. Still for that read-out and setting: the figure for `O=C(COc1cccnc1)Nc1ccc2ncn(Cc3ccc(Cl)c(Cl)c3)c(=O)c2c1` [XXXVI, N-{3-[(3,4-dichlorophenyl)methyl]-4-oxo(3-hydroquinazolin-6-yl)}-2-(3-pyridyloxy)acetamide] is 5.51; for `O=C(CSc1ccncc1)Nc1ccc2ncn(Cc3ccc(Cl)cc3)c(=O)c2c1` [XXXVII, N-{3-[(4-chlorophenyl)methyl]-4-oxo(3-hydroquinazolin-6-yl)}-2-(4-pyridylthio)acetamide] it is 5.14; for `O=C(COc1ccccc1)Nc1ccc2ncn(Cc3ccc(Br)cc3)c(=O)c2c1` [XXXVIII, N-{3-[(4-bromophenyl)methyl]-4-oxo(3-hydroquinazolin-6-yl)}-2-phenoxyacetamide] it is 4.82.

The compound `CC(=O)OCC(=O)Nc1ccc2ncn(Cc3ccc(F)c(F)c3)c(=O)c2c1` [compound 1, 2-(3-(3,4-difluorobenzyl)-4-oxo-3,4-dihydroquinazolin-6-ylamino)-2-oxoethyl acetate] gave a pIC50 under setting [2] of 5.68.

`O=C(CO)Nc1ccc2ncn(Cc3ccc(F)c(F)c3)c(=O)c2c1` [compound 2, N-(3-(3,4-difluorobenzyl)-4-oxo-3,4-dihydroquinazolin-6-yl)-2-hydroxyacetamide] had a pIC50 under setting [2] of 5.62.

The compound `CC(=O)OCC(=O)Nc1ccc2ncn(Cc3ccc(Cl)cc3)c(=O)c2c1` [compound 3, 2-(3-(4-chlorobenzyl)-4-oxo-3,4-dihydroquinazolin-6-ylamino)-2-oxoethyl acetate] gave a pIC50 under setting [2] of 6.03.

With `O=C(CO)Nc1ccc2ncn(Cc3ccc(Cl)cc3)c(=O)c2c1` [compound 4, N-(3-(4-chlorobenzyl)-4-oxo-3,4-dihydroquinazolin-6-yl)-2-hydroxyacetamide], the pIC50 under setting [2] is 5.92. `O=C(COc1ccccc1)Nc1ccc2ncn(Cc3ccc(Cl)cc3)c(=O)c2c1` [compound 5, N-(3-(4-chlorobenzyl)-4-oxo-3,4-dihydroquinazolin-6-yl)-2-phenoxyacetamide] had a pIC50 under setting [2] of 5.10.

Turning to `CC(=O)OCC(=O)Nc1ccc2ncn(Cc3ccc(Cl)c(C(F)(F)F)c3)c(=O)c2c1` [compound 6, 2-(3-(4-chloro-3-(trifluoromethyl)benzyl)-4-oxo-3,4-dihydroquinazolin-6-ylamino)-2-oxoethyl acetate], the pIC50 under setting [2] was 6.89. The same measure, in the same setting: the figure for `O=C(CO)Nc1ccc2ncn(Cc3ccc(Cl)c(C(F)(F)F)c3)c(=O)c2c1` [compound 7, N-(3-(4-chloro-3-(trifluoromethyl)benzyl)-4-oxo-3,4-dihydroquinazolin-6-yl)-2-hydroxyacetamide] is 6.72; for `Cc1nc2cc(NC(=O)OCc3ccccc3)ccc2c(=O)n1Cc1ccc(Cl)c(Cl)c1` [compound 8, benzyl 3-(3,4-dichlorobenzyl)-2-methyl-4-oxo-3,4-dihydroquinazolin-7-ylcarbamate] it is 5.92; for `CC(c1ccc(Cl)c(Cl)c1)n1cnc2cc(NC(=O)OCc3ccccc3)ccc2c1=O` (stereo not shown) [compound 9, benzyl 3-(1-(3,4-dichlorophenyl)ethyl)-4-oxo-3,4-dihydroquinazolin-7-ylcarbamate] it is 6.54. Still for that read-out and setting: the same measure for `CC(=O)OCC(=O)Nc1ccc2c(=O)n(C(C)c3ccc(Cl)c(Cl)c3)cnc2c1` (stereo not shown) [compound 10, 2-(3-(1-(3,4-dichlorophenyl)ethyl)-4-oxo-3,4-dihydroquinazolin-7-ylamino)-2-oxoethyl acetate]: 6.89. Same read-out and setting: the figure for `CC(c1ccc(Cl)c(Cl)c1)n1cnc2cc(NC(=O)CO)ccc2c1=O` (stereo not shown) [compound 11, N-(3-(1-(3,4-dichlorophenyl)ethyl)-4-oxo-3,4-dihydroquinazolin-7-yl)-2-hydroxyacetamide] is 6.77; for `COc1cccc(Cn2cnc3ccc(NC(=O)OCc4ccccc4)cc3c2=O)c1` [compound 12, benzyl 3-(3-methoxybenzyl)-4-oxo-3,4-dihydroquinazolin-6-ylcarbamate] it is 5.85. `CC(=O)OCC(=O)Nc1ccc2ncn(Cc3ccc(F)c(Cl)c3)c(=O)c2c1` [compound 13, 2-(3-(3-chloro-4-fluorobenzyl)-4-oxo-3,4-dihydroquinazolin-6-ylamino)-2-oxoethyl acetate] had a pIC50 under setting [2] of 5.77. The compound `O=C(Nc1ccc2ncn(Cc3ccc(F)c(C(F)(F)F)c3)c(=O)c2c1)OCc1ccccc1` [compound 14, benzyl 3-(4-fluoro-3-(trifluoromethyl)benzyl)-4-oxo-3,4-dihydroquinazolin-6-ylcarbamate] gave a negative-log IC50 (pIC50) under setting [2] of 6.51.

Under setting [2], `CC(=O)OCC(=O)Nc1ccc2ncn(Cc3ccc(F)c(C(F)(F)F)c3)c(=O)c2c1` [compound 15, 2-(3-(4-fluoro-3-(trifluoromethyl)benzyl)-4-oxo-3,4-dihydroquinazolin-6-ylamino)-2-oxoethyl acetate] had a pIC50 of 6.15.

Consider `O=C(CO)Nc1ccc2ncn(Cc3ccc(F)c(C(F)(F)F)c3)c(=O)c2c1` [compound 16, N-(3-(4-fluoro-3-(trifluoromethyl)benzyl)-4-oxo-3,4-dihydroquinazolin-6-yl)-2-hydroxyacetamide], for which, under setting [2], the pIC50 was 6.04.
